Reference: US20250325677A1, “STAT6 DEGRADERS” (Gilead Sciences, Inc., priority 2024, published 2025)

Legend:
STAT6 = STAT6 (Homo sapiens (Human), UniProt P42226); experiment: STAT6 degrader assay (HiBiT, HeLa LgBiT clone 4.14); assay type: cell-based; details: HeLa LgBiT clone 4.14, 4-24 h; geometric mean; given for compounds with >80% Emax; read-out: STAT6 degradation DC50
Method in brief: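 DC50 (nM) comes from luminescence of non-degraded STAT6 read 0.5 h after Nano-GLO addition, following 4-24 h compound exposure at 37° C. Cells were HeLa clone 4.14 expressing LgBiT with a CRISPR HiBiT tag on endogenous STAT6; 50 μM terfenadine set full degradation.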

eotaxin-3 release = experiment: Human whole blood eotaxin-3 assay (IL-4 stimulated); assay type: cell-based; details: human whole blood, IL-4 0.4 nM, 48 hours; geometric mean; given for compounds with >80% Emax; read-out: Eotaxin-3 EC50
Method in brief: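 Human whole blood was preincubated with compound for 120 min at 37 °C, then stimulated with recombinant human IL-4 (E. coli) at 0.4 nM final for 48 h. Inhibition of eotaxin-3 release gave EC50 values.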

Chain of STAT6 (P42226 whole entry): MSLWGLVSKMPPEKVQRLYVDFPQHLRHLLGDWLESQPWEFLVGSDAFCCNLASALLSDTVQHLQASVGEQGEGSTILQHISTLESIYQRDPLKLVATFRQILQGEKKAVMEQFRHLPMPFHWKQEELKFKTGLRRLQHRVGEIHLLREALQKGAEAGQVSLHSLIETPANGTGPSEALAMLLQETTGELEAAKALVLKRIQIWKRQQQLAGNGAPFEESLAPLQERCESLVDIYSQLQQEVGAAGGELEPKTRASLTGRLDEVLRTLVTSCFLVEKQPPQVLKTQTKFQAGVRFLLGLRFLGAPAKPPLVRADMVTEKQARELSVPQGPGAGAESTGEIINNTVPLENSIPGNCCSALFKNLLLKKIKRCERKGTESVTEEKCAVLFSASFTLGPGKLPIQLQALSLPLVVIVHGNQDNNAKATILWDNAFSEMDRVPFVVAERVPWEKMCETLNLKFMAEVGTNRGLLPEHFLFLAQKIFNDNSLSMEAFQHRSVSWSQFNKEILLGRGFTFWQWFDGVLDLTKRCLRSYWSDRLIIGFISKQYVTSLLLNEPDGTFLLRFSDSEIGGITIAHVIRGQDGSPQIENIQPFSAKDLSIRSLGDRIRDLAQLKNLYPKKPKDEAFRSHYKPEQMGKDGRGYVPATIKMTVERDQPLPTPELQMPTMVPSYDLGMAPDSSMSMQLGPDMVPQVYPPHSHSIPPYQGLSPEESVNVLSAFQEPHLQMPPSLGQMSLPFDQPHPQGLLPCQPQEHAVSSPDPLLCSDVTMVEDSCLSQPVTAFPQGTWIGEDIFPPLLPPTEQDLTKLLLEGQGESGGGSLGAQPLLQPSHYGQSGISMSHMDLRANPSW

| Structure (SMILES) | DC50 (STAT6) [nM] | EC50 (eotaxin-3 release) [nM] |
| --- | --- | --- |
| C[C@H]1CN(Cc2ccc3c(c2)n(C)c(=O)n3C2CCC(=O)NC2=O)CCN1CC1CCN(C(=O)c2ccc(C3CCN([C@@H](C)c4cc5c(-c6ccc(N)cn6)ccnc5n4C)CC3)cc2)CC1 (stereo partly drawn) [Example 3e56, 3-(5-(((S)-4-((1-(4-(1-((S)-1-(4-(5-aminopyridin-2-yl)-1-methyl-1H-pyrrolo[2,3-b]pyridin-2-yl)ethyl)piperidin-4-yl)benzoyl)piperidin-4-yl)methyl)-3-methylpiperazin-1-yl)methyl)-3-methyl-2-oxo-2,3-dihydro-1H-benzo[d]imidazol-1-yl)piperidine-2,6-dione] | 0.4 | 2.6 |
| C[C@@H](c1cc2c(-c3ccc(N)nc3)ccnc2n1C)N1CCC(c2ccc(C(=O)N3CCC(CN4CCN(Cc5cc6c(cc5F)N(C5CCC(=O)NC5=O)C(=O)C65CC5)CC4)CC3)cc2)CC1 (stereo partly drawn) [Example 3h9, 3-(5′-((4-((1-(4-(1-((S)-1-(4-(6-aminopyridin-3-yl)-1-methyl-1H-pyrrolo[2,3-b]pyridin-2-yl)ethyl)piperidin-4-yl)benzoyl)piperidin-4-yl)methyl)piperazin-1-yl)methyl)-6′-fluoro-2′-oxospiro[cyclopropane-1,3′-indolin]-1′-yl)piperidine-2,6-dione] | 12.7 | 43.7 |
| CNc1ccc(-c2ccnc3c2cc([C@H](C)N2CC=C(c4c(C)cc(C(=O)N(C)c5ccc(C6CCN(Cc7ccc8c(c7)C7(CC7)C(=O)N8C7CCC(=O)NC7=O)CC6)cc5)cc4F)CC2)n3C)cn1 (stereo partly drawn) [Example 3h11, N-(4-(1-((1′-(2,6-dioxopiperidin-3-yl)-2′-oxospiro[cyclopropane-1,3′-indolin]-5′-yl)methyl)piperidin-4-yl)phenyl)-3-fluoro-N,5-dimethyl-4-(1-((S)-1-(1-methyl-4-(6-(methylamino)pyridin-3-yl)-1H-pyrrolo[2,3-b]pyridin-2-yl)ethyl)-1,2,3,6-tetrahydropyridin-4-yl)benzamide] | 0.3 | 2.8 |

Now from value to compound:

| DC50 (STAT6) [nM] | EC50 (eotaxin-3 release) [nM] | Structure (SMILES) |
| --- | --- | --- |
| 0.8 | 1.9 | C[C@H]1CN(Cc2cc3c(cc2F)n(C2CCC(=O)NC2=O)c(=O)n3C2CC2)CCN1CC1CCN(C(=O)c2ccc(C3CCN([C@@H](C)c4cc5c(-c6ccc(N)nc6)ccnc5n4C)CC3)cc2)CC1 (stereo partly drawn) [Example 3e58, 3-(5-(((S)-4-((1-(4-(1-((S)-1-(4-(6-aminopyridin-3-yl)-1-methyl-1H-pyrrolo[2,3-b]pyridin-2-yl)ethyl)piperidin-4-yl)benzoyl)piperidin-4-yl)methyl)-3-methylpiperazin-1-yl)methyl)-3-cyclopropyl-6-fluoro-2-oxo-2,3-dihydro-1H-benzo[d]imidazol-1-yl)piperidine-2,6-dione] |
| 48.7 | 23.2 | C[C@@H](c1cc2c(-c3ccc(N)nc3)ccnc2n1C)N1CCC(c2ccc(C(=O)N3CCC(CC4CCN(c5ccc6c(c5)C5(CC5)C(=O)N6C5CCC(=O)NC5=O)CC4)CC3)cc2)CC1 (stereo partly drawn) [Example 3h13, 3-(5′-(4-((1-(4-(1-((S)-1-(4-(6-aminopyridin-3-yl)-1-methyl-1H-pyrrolo[2,3-b]pyridin-2-yl)ethyl)piperidin-4-yl)benzoyl)piperidin-4-yl)methyl)piperidin-1-yl)-2′-oxospiro[cyclopropane-1,3′-indolin]-1′-yl)piperidine-2,6-dione] |
| 6.3 | 12.3 | CNc1ccc(-c2ccnc3c2cc([C@H](C)N2CC=C(c4c(C)cc(C(=O)N5CCC(CN6CCN(Cc7ccc8c(c7)C(C)(C)C(=O)N8C7CCC(=O)NC7=O)C[C@@H]6C)CC5)cc4F)CC2)n3C)cn1 (stereo partly drawn) [Example 3h18, 3-(5-(((S)-4-((1-(3-fluoro-5-methyl-4-(1-((S)-1-(1-methyl-4-(6-(methylamino)pyridin-3-yl)-1H-pyrrolo[2,3-b]pyridin-2-yl)ethyl)-1,2,3,6-tetrahydropyridin-4-yl)benzoyl)piperidin-4-yl)methyl)-3-methylpiperazin-1-yl)methyl)-3,3-dimethyl-2-oxoindolin-1-yl)piperidine-2,6-dione] |
